Source: PubChem BioAssay (NCI)
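A five-concentration, 48-hour dose response in 96-well plates underlies each endpoint, interpolated linearly between surrounding concentrations. GI50: concentration for 50% inhibition of growth. TGI marks complete inhibition of growth.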

Tests used:
Assay in all cases: NCI tumour cell line growth inhibition, 48 h
[1] = tested on: 786-0 renal
[2] = tested on: A498 renal
[3] = tested on: A549 NSCLC
[4] = tested on: ACHN renal
[5] = tested on: BT-549 breast
[6] = tested on: CAKI-1 renal
[7] = tested on: CCRF-CEM leukemia
[8] = tested on: COLO 205 colon
[9] = tested on: DU-145 prostate
[10] = tested on: HCT-116 colon
[11] = tested on: HCT-15 colon
[12] = tested on: HL-60(TB) leukemia
[13] = tested on: HOP-62 NSCLC
[14] = tested on: HS 578T breast
[15] = tested on: HT29 colon
[16] = tested on: IGROV1 ovarian
[17] = tested on: K-562 leukemia
[18] = tested on: KM12 colon
[19] = tested on: LOX IMVI melanoma
[20] = tested on: M14 melanoma
[21] = tested on: MCF7 breast
[22] = tested on: MDA-MB-231 breast
[23] = tested on: MDA-MB-435
[24] = tested on: MOLT-4 leukemia
[25] = tested on: NCI-H226 lung
[26] = tested on: NCI-H23 lung
[27] = tested on: NCI-H460 lung
[28] = tested on: NCI-H522 lung
[29] = tested on: NCI/ADR-RES ovarian
[30] = tested on: OVCAR-3 ovarian
[31] = tested on: OVCAR-4 ovarian
[32] = tested on: OVCAR-5 ovarian
[33] = tested on: OVCAR-8 ovarian
[34] = tested on: PC-3 prostate
[35] = tested on: RPMI-8226 leukemia
[36] = tested on: SF-268 CNS
[37] = tested on: SF-295 CNS
[38] = tested on: SF-539 CNS
[39] = tested on: SK-MEL-2 melanoma
[40] = tested on: SK-MEL-28 melanoma
[41] = tested on: SK-MEL-5 melanoma
[42] = tested on: SK-OV-3 ovarian
[43] = tested on: SN12C renal
[44] = tested on: SNB-19 CNS
[45] = tested on: SNB-75 CNS
[46] = tested on: SW-620 colon
[47] = tested on: T-47D breast
[48] = tested on: U251 CNS
[49] = tested on: UACC-257 melanoma
[50] = tested on: UO-31 renal
[51] = tested on: HCC-2998 colon
[52] = tested on: HOP-92 NSCLC
[53] = tested on: TK-10 renal

## O=C1C(=O)/C(=C/c2ccccc2)CCCCCC/C1=C/c1ccccc1
[1]
  GI50: 1820 nM
  TGI: 3330 nM
[2]
  GI50: 13700 nM
  TGI: 28400 nM
[3]
  GI50: 2330 nM
  TGI: 7160 nM
[4]
  GI50: 2570 nM
  TGI: 6500 nM
[5]
  GI50: 2330 nM
  TGI: 5000 nM
[6]
  GI50: 3110 nM
  TGI: 18600 nM
[7]
  GI50: 3050 nM
  TGI: 17900 nM
[8]
  GI50: 10100 nM
  TGI: 32600 nM
[9]
  GI50: 3730 nM
  TGI: 14000 nM
[10]
  GI50: 1500 nM
  TGI: 2820 nM
[11]
  GI50: 1680 nM
  TGI: 3240 nM
[12]
  GI50: 2960 nM
  TGI: 8870 nM
[13]
  GI50: 3440 nM
  TGI: 10500 nM
[14]
  GI50: 8060 nM
  TGI: > 100000 nM
[15]
  GI50: 2040 nM
  TGI: 3740 nM
[16]
  GI50: 2930 nM
  TGI: 8700 nM
[17]
  GI50: 2940 nM
  TGI: 8770 nM
[18]
  GI50: 2700 nM
  TGI: 6400 nM
[19]
  GI50: 1820 nM
  TGI: 3530 nM
[20]
  GI50: 2290 nM
  TGI: 5310 nM
[21]
  GI50: 3240 nM
  TGI: 31800 nM
[22]
  GI50: 2630 nM
  TGI: 6520 nM
[23]
  GI50: 2210 nM
  TGI: 5050 nM
[24]
  GI50: 3170 nM
  TGI: 10700 nM
[25]
  GI50: 1760 nM
  TGI: 3540 nM
[26]
  GI50: 3380 nM
  TGI: 13700 nM
[27]
  GI50: 2430 nM
  TGI: 6090 nM
[28]
  GI50: 4680 nM
  TGI: 16300 nM
[29]
  GI50: 4780 nM
  TGI: > 100000 nM
[30]
  GI50: 1920 nM
  TGI: 3630 nM
[31]
  GI50: 2780 nM
  TGI: 8470 nM
[32]
  GI50: 2680 nM
  TGI: 7930 nM
[33]
  GI50: 3140 nM
  TGI: 12700 nM
[34]
  GI50: 3190 nM
  TGI: 17100 nM
[35]
  GI50: 1900 nM
  TGI: 5960 nM
[36]
  GI50: 2740 nM
  TGI: 8280 nM
[37]
  GI50: 2580 nM
  TGI: 7000 nM
[38]
  GI50: 1980 nM
  TGI: 3950 nM
[39]
  GI50: 16600 nM
  TGI: 34400 nM
[40]
  GI50: 3900 nM
  TGI: 15400 nM
[41]
  GI50: 3250 nM
  TGI: 12100 nM
[42]
  GI50: 8900 nM
  TGI: 70300 nM
[43]
  GI50: 2350 nM
  TGI: 5580 nM
[44]
  GI50: 5300 nM
  TGI: 20200 nM
[45]
  GI50: 2860 nM
  TGI: 17600 nM
[46]
  GI50: 3210 nM
  TGI: 11600 nM
[47]
  GI50: 5090 nM
  TGI: > 100000 nM
[48]
  GI50: 1620 nM
  TGI: 2970 nM
[49]
  GI50: 2300 nM
  TGI: 6150 nM
[50]
  GI50: 1890 nM
  TGI: 3880 nM

## COc1cc(/C=C/c2cc(/C=C/c3ccc(O)c(OC)c3)n(C(N)=O)n2)ccc1O
[1]
  GI50: 372 nM
  TGI: 1370 nM
[2]
  GI50: 1120 nM
  TGI: 3480 nM
[3]
  GI50: 491 nM
  TGI: 11300 nM
[4]
  GI50: 342 nM
  TGI: 10200 nM
[5]
  GI50: 395 nM
  TGI: 1580 nM
[6]
  GI50: 368 nM
  TGI: 10000 nM
[7]
  GI50: 295 nM
  TGI: > 100000 nM
[8]
  GI50: 2360 nM
  TGI: 6030 nM
[9]
  GI50: 482 nM
  TGI: 1630 nM
[51]
  GI50: 1560 nM
  TGI: 11200 nM
[10]
  GI50: 314 nM
  TGI: 1110 nM
[11]
  GI50: 312 nM
  TGI: 2010 nM
[52]
  GI50: 861 nM
  TGI: 4400 nM
[14]
  GI50: 259 nM
  TGI: 2520 nM
[15]
  GI50: 2180 nM
  TGI: 5280 nM
[17]
  GI50: 350 nM
  TGI: > 100000 nM
[18]
  GI50: 351 nM
  TGI: 1860 nM
[19]
  GI50: 493 nM
  TGI: 2750 nM
[20]
  GI50: 283 nM
  TGI: 1030 nM
[21]
  GI50: 314 nM
  TGI: 1450 nM
[22]
  GI50: 655 nM
  TGI: 12800 nM
[23]
  GI50: 102 nM
  TGI: 346 nM
[24]
  GI50: 365 nM
  TGI: > 100000 nM
[25]
  GI50: 1380 nM
  TGI: 4400 nM
[26]
  GI50: 647 nM
  TGI: 3530 nM
[27]
  GI50: 318 nM
  TGI: 1300 nM
[28]
  GI50: 252 nM
  TGI: 964 nM
[29]
  GI50: 435 nM
  TGI: 4440 nM
[30]
  GI50: 427 nM
  TGI: 2190 nM
[31]
  GI50: 570 nM
  TGI: 5030 nM
[32]
  GI50: 1760 nM
  TGI: > 100000 nM
[33]
  GI50: 543 nM
  TGI: 22800 nM
[34]
  GI50: 439 nM
  TGI: 2310 nM
[36]
  GI50: 439 nM
  TGI: 4830 nM
[39]
  GI50: 400 nM
  TGI: 1130 nM
[40]
  GI50: 609 nM
  TGI: 3260 nM
[42]
  GI50: 392 nM
  TGI: 1930 nM
[43]
  GI50: 585 nM
  TGI: 5940 nM
[44]
  GI50: 691 nM
[45]
  GI50: 311 nM
  TGI: 1260 nM
[46]
  GI50: 398 nM
  TGI: 1820 nM
[47]
  GI50: 507 nM
  TGI: 3680 nM
[53]
  GI50: 1300 nM
  TGI: 4730 nM
[48]
  GI50: 526 nM
  TGI: 10500 nM
[49]
  GI50: 1530 nM
  TGI: 9030 nM
[50]
  GI50: 370 nM
  TGI: 1690 nM
